The term pest or weed control denotes the degree to which the test organism was suppressed or injured, in per cent. Lower therefore signals a weak effect.

The values below come from patent US9204653B2, “5-fluoro pyrimidine derivatives” (DOW AGROSCIENCES LLC, priority 2008, dated 2015).

In this assay the test system is Mycosphaerella graminicola; Anamorph: Septoria tritici; Bayer Code SEPTTR. In words: Leaf blotch of wheat, foliar fungicide treatment, one day protectant (1DP) or three day curative (3DC). It is filed as in vivo, Septoria tritici on wheat plants (variety Yuma). Conditions: Zymoseptoria tritici, 24 h, % disease control rating, one day protectant.

`Fc1cnc(OCc2cc(Cl)cc(Cl)c2)nc1NC1CC1` [Compound 870] registered a pest or weed control at 200 ppm of 76 to 100%.
`Cc1ccc(CNc2nc(OCCc3ccccc3)ncc2F)cc1` [Compound 871] had a pest or weed control at 50 ppm of 0 to 25% and a pest or weed control at 200 ppm of 26 to 50%.
`Cc1ccc(CNc2nc(OCC(F)(F)F)ncc2F)cc1` [Compound 872]: the pest or weed control at 50 ppm was in the range of 26 to 50% and the pest or weed control at 200 ppm lay in the range of 51 to 75%.
The like results for `Fc1cnc(OCc2ccco2)nc1NCc1ccc(Cl)nc1` [Compound 873] were, in that order, 0 to 25% and 0 to 25%.
As to `Fc1cnc(OCc2cccs2)nc1NCc1ccc(Cl)nc1` [Compound 874], the pest or weed control at 50 ppm is 0 to 25% and the pest or weed control at 200 ppm was in the range of 0 to 25%.
The compound `Cc1ccc(CNc2nc(OC3CCCCC3)ncc2F)cc1` [Compound 875] showed a pest or weed control at 50 ppm of 0 to 25% and a pest or weed control at 200 ppm of 76 to 100%.
`Fc1cnc(OCc2c(Cl)cccc2Cl)nc1NC1CC1` [Compound 877] displayed a pest or weed control at 200 ppm of 76 to 100%.
On to `Nc1nc(OCc2cccc(Oc3ccccc3)c2)ncc1F` [Compound 878], for which the pest or weed control at 50 ppm was in the range of 76 to 100% and the pest or weed control at 200 ppm lay within 76 to 100%.
As for `Fc1cnc(OCc2ccccc2Cl)nc1NCc1ccc(Cl)cc1` [Compound 879], the pest or weed control at 50 ppm fell in the range of 76 to 100% and the pest or weed control at 200 ppm fell in the range of 76 to 100%.
`Fc1cnc(OCCc2ccccc2)nc1NCc1ccc(Cl)nc1` [Compound 880] registered a pest or weed control at 50 ppm of 0 to 25% and a pest or weed control at 200 ppm of 26 to 50%.
The like results for `Cc1ccc(COc2ncc(F)c(NC3CC3)n2)cc1` [Compound 881] were, in that order, 76 to 100% and 76 to 100%.
For `Fc1ccc(COc2ncc(F)c(NCc3ccc4c(c3)OCO4)n2)cc1` [Compound 882], the pest or weed control at 50 ppm is 76 to 100% and the pest or weed control at 200 ppm was in the range of 76 to 100%.
Compound `Fc1ccccc1CNc1nc(OCc2ccc(Cl)c(Cl)c2)ncc1F` [Compound 883] came in with a pest or weed control at 50 ppm of 76 to 100% and a pest or weed control at 200 ppm of 76 to 100%.
`CCOCCOc1cccc(COc2ncc(F)c(NC(C)=O)n2)c1` [Compound 884] yielded a pest or weed control at 50 ppm of 76 to 100% and a pest or weed control at 200 ppm of 76 to 100%.
Consider `Fc1cnc(OCc2ccc(Cl)cc2)nc1NCC(F)(F)F` [Compound 885], for which the pest or weed control at 50 ppm was in the range of 26 to 50% and the pest or weed control at 200 ppm was 51 to 75%.
For the compound `Cc1cnc(CNc2nc(OCc3ccc(Cl)cc3)ncc2F)cn1` [Compound 886], the pest or weed control at 50 ppm is 76 to 100% and the pest or weed control at 200 ppm is 76 to 100%.
As to `Fc1cnc(OCc2cccc(Cl)c2)nc1NC1CC1` [Compound 887], the pest or weed control at 200 ppm lay in the range of 76 to 100%.
Consider `Fc1ccccc1CNc1nc(OCc2ccccn2)ncc1F` [Compound 888], for which the pest or weed control at 50 ppm was in the range of 0 to 25% and the pest or weed control at 200 ppm lay in the range of 51 to 75%.
In turn, `Fc1ccc(COc2ncc(F)c(NCc3cccs3)n2)cc1F` [Compound 890] had a pest or weed control at 200 ppm of 76 to 100%.
Consider `Nc1nc(OCc2ccccn2)ncc1F` [Compound 891], for which the pest or weed control at 50 ppm fell in the range of 76 to 100% and the pest or weed control at 200 ppm was in the range of 76 to 100%.
As to `Cc1ccc(COc2ncc(F)c(NCc3ccc(Cl)cc3)n2)cc1` [Compound 892], the pest or weed control at 50 ppm lay in the range of 51 to 75% and the pest or weed control at 200 ppm lay in the range of 76 to 100%.
The compound `Fc1ccccc1CNc1nc(OCc2ccccc2Cl)ncc1F` [Compound 893] gave a pest or weed control at 50 ppm of 76 to 100% and a pest or weed control at 200 ppm of 76 to 100%.
`Fc1cnc(OCc2ccc(C(F)(F)F)cc2)nc1NCc1cccs1` [Compound 896] displayed a pest or weed control at 200 ppm of 76 to 100%.
`Fc1ccc(COc2ncc(F)c(N3CCOCC3)n2)cc1` [Compound 897] registered a pest or weed control at 50 ppm of 0 to 25% and a pest or weed control at 200 ppm of 51 to 75%.
Compound `Fc1cnc(OCc2ccco2)nc1NC1CC1` [Compound 898] had a pest or weed control at 50 ppm of 0 to 25% and a pest or weed control at 200 ppm of 0 to 25%.
